According to ChEMBL document CHEMBL1147880, “beta-Alkylthio indolyl carbinols: potent nonsteroidal antiandrogens with oral efficacy in a prostate cancer model” (Bioorg Med Chem Lett, 2007):
Active and inactive are the calls of the source. No cut-off for these calls is given here.

Key:
[1] = system: Rattus norvegicus; test: Reduction of prostate weight in orally dosed immature rat; type: functional, Prostate gland; set-up: Activity: scale not given: the % may be the effect or the level left
[2] = Half life in mature rat; type: ADME, organism-based; conditions: in vivo
[3] = system: Rattus norvegicus; test: Reduction of prostate weight in orally dosed mature rat; type: functional; conditions: Prostate gland, po, read-out: ID50 (the source's name)
[4] = system: Rattus norvegicus; test: Reduction of prostate weight in orally dosed castrated mature rat; type: functional, organism-based; conditions: Prostate gland
[5] = Oral bioavailability in mature rat; type: ADME, organism-based; conditions: in vivo
[6] = system: LNCaP; test: Inhibition of tumor growth in LNCaP cells xenografted mouse at 100 mg/kg, po after 51 days; type: functional, organism-based; set-up: dose 100 mg/kg; conditions: Homo sapiens
[7] = target: T1, Androgen receptor (Homo sapiens) (UniProt P10275); test: Binding affinity to AR expressed in COS cells by whole-cell binding assay; type: cell-based
T1 sequence (whole entry): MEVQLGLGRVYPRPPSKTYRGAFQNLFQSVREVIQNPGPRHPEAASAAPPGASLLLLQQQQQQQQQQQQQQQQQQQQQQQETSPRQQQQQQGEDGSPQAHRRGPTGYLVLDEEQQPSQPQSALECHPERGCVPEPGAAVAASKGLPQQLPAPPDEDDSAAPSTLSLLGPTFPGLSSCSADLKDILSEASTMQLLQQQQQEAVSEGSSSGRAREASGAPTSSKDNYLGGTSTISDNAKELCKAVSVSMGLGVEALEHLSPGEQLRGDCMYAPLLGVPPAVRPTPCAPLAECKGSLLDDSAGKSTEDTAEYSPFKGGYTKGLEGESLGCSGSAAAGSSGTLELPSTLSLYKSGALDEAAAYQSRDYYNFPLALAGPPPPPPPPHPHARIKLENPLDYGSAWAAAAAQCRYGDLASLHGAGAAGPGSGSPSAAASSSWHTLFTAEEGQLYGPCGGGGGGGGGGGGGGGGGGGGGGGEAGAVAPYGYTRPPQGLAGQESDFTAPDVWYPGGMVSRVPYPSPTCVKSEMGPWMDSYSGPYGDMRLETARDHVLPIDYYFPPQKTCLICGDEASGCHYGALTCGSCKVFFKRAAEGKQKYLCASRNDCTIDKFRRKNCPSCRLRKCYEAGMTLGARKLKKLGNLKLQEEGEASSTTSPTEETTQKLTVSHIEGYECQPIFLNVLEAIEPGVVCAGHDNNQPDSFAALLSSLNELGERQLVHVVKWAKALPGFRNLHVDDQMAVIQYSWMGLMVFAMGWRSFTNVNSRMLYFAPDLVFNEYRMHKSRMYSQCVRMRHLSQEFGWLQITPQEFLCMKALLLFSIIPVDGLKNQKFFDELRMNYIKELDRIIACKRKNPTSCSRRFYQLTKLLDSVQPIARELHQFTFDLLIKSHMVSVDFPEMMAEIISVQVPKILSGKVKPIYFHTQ

Structure (SMILES) | Activity [1] [%] | also measured
C[C@@](O)(CSCC(F)(F)F)c1cc2cc([N+](=O)[O-])c(C(F)(F)F)cc2[nH]1 | 46 | 
CCSC[C@](C)(O)c1cc2cc(C#N)c(C)cc2[nH]1 |  | Activity ([1]; Prostate gland): inactive
CCSC[C@](C)(O)c1cc2cc(C#N)c(OC)cc2[nH]1 |  | Activity ([1]; Prostate gland): inactive
CC[S+]([O-])C[C@](C)(O)c1cc2cc(C#N)c(C(F)(F)F)cc2[nH]1 (some centres not stated) | 62 | 
CCSCC(O)c1cc2cc([N+](=O)[O-])c(C(F)(F)F)cc2[nH]1 (configuration not stated) | 30 | 
CCc1c([C@@](C)(O)CS(=O)(=O)CC)[nH]c2cc(C(F)(F)F)c(C#N)cc12 |  | ID50 [1]: 1.4 mg/day; half-life [2]: 0.9 h
CCSC[C@](C)(O)c1cc2cc(F)c(Cl)cc2[nH]1 | 60 | 
CCSC[C@](O)(CC)c1cc2cc([N+](=O)[O-])c(C(F)(F)F)cc2[nH]1 | 73 | 
CCSC[C@](C)(O)c1cc2cc([N+](=O)[O-])c(C(F)(F)F)cc2o1 | 38 | 
CCSCC(C)(O)Cc1cc2cc([N+](=O)[O-])c(C(F)(F)F)cc2[nH]1 (configuration not stated) |  | Activity ([1]; Prostate gland): inactive
CCSC[C@](C)(O)c1cc2cc(C#N)c(Cl)cc2[nH]1 | 83 | 
CSCC[C@@](C)(O)c1cc2cc([N+](=O)[O-])c(C(F)(F)F)cc2[nH]1 | 44 | 
CCSC[C@](C)(O)c1cc2cc(C#N)ncc2[nH]1 |  | Activity ([1]; Prostate gland): inactive
CCSC[C@](C)(O)c1cc2cc(Cl)c(C(F)(F)F)cc2[nH]1 | 54 | 
C[C@@](O)(CSCc1ccco1)c1cc2cc([N+](=O)[O-])c(C(F)(F)F)cc2[nH]1 | 46 | 
CCSC[C@](C)(O)c1cc2ccccc2[nH]1 | 26 | 
CCSC[C@](C)(O)c1cc2cc([N+](=O)[O-])ccc2[nH]1 | 34 | 
C[C@@](O)(CSCc1cccs1)c1cc2cc([N+](=O)[O-])c(C(F)(F)F)cc2[nH]1 | 28 | 
CCCCSC[C@@](C)(O)c1cc2cc([N+](=O)[O-])c(C(F)(F)F)cc2[nH]1 | 40 | 
CC(C)SC[C@@](C)(O)c1cc2cc([N+](=O)[O-])c(C(F)(F)F)cc2[nH]1 | 42 | 
CC(C)CSC[C@@](C)(O)c1cc2cc([N+](=O)[O-])c(C(F)(F)F)cc2[nH]1 | 75 | 
CCSC[C@](C)(O)c1cc2cc(C#N)c(C(F)(F)F)cc2[nH]1 [listing 1 of 2 here] | 100 | 
CCS(=O)(=O)C[C@](C)(O)c1cc2cc(C#N)c(C(F)(F)F)cc2[nH]1 | 100 | ID50 [1]: 0.89 mg/day; ED50 [3]: 22 mg/kg; Activity [4]: inactive; bioavailability [5]: 68%; half-life [2]: 52 h; Activity [6]: Active; Activity [7]: Active
CCSC[C@](C)(O)c1[nH]c2cc(C(F)(F)F)c(C#N)cc2c1C | 61 | ED50 [3]: > 60 mg/kg

Structure (SMILES) | Activity [1] [%] | also measured
O=[N+]([O-])c1cc2cc(C3(O)CCSC3)[nH]c2cc1C(F)(F)F (configuration not stated) | 49 | 
CCSC[C@](C)(O)c1cc2cc(C#N)c(C(F)(F)F)cc2n1COC | 37 | 
CCSC[C@](C)(O)c1cc2cc(C#N)c(C(F)(F)F)cc2n1CC(F)(F)F | 53 | 
C[C@@](O)(CSCc1ccccc1)c1cc2cc([N+](=O)[O-])c(C(F)(F)F)cc2[nH]1 | 54 | 
CSC[C@@](C)(O)c1cc2cc([N+](=O)[O-])c(C(F)(F)F)cc2[nH]1 | 66 | 
CCSC[C@](C)(O)c1cc2cc(C#N)c(C(F)(F)F)cc2n1C | 43 | 
CCSC[C@](C)(O)c1cc2cc(N)c(C(F)(F)F)cc2[nH]1 |  | Activity ([1]; Prostate gland): inactive
CCSC[C@](C)(O)c1cc2cc(Cl)c(Cl)cc2[nH]1 |  | Activity ([1]; Prostate gland): inactive
CCS(=O)(=O)C[C@](C)(O)c1[nH]c2cc(C(F)(F)F)c(C#N)cc2c1C |  | ID50 [1]: 2.4 mg/day; ED50 [3]: > 30 mg/kg; half-life [2]: 2 h
CCSC[C@](C)(O)c1cc2cc(C#N)c(C(F)(F)F)cc2n1CC | 55 | 
CCSC[C@@](C)(O)c1cc2cc(C#N)c(C(F)(F)F)cc2[nH]1 |  | Activity ([1]; Prostate gland): inactive
CCSCC(O)(CSCC)c1cc2cc([N+](=O)[O-])c(C(F)(F)F)cc2[nH]1 | 32 | 
CCSC[C@@](C)(OC)c1cc2cc([N+](=O)[O-])c(C(F)(F)F)cc2[nH]1 | 76 | 
CCCSC[C@@](C)(O)c1cc2cc([N+](=O)[O-])c(C(F)(F)F)cc2[nH]1 | 40 | 
CC(O)(CS(=O)(=O)c1ccc(F)cc1)C(=O)Nc1ccc(C#N)c(C(F)(F)F)c1 (configuration not stated) [BICALUTAMIDE] | 75 | ID50 [1]: 0.44 mg/day; ED50 [3]: > 44 mg/kg
CCSCC(C)(O)c1cc2cc([N+](=O)[O-])cc(C(F)(F)F)c2[nH]1 (configuration not stated) | 66 | 
CCSC[C@](C)(O)c1cc2cc(Cl)ccc2[nH]1 |  | Activity ([1]; Prostate gland): inactive
CCSC[C@](C)(O)c1cc2cc(C#N)c(C(F)(F)F)cc2[nH]1 [listing 2 of 2 here] | 100 | ID50 [1]: 0.44 mg/day; ED50 [3]: 22 mg/kg
CCSC[C@](C)(O)c1cc2cc(C#N)ccc2[nH]1 |  | Activity ([1]; Prostate gland): inactive
CCSC[C@](C)(O)c1cc2cc(C)c(C(F)(F)F)cc2[nH]1 | 22 | 
CCSC[C@](C)(O)c1cc2cc(F)c(C(F)(F)F)cc2[nH]1 | 58 | 
CCSC[C@@](C)(O)c1cc2cc([N+](=O)[O-])c(C(F)(F)F)cc2[nH]1 | 75 | 
CCSC[C@](C)(O)c1cc2cc(C#N)c(C(F)(F)F)cc2n1CC#N |  | Activity ([1]; Prostate gland): inactive
